Measurements as given in article PMC11649784, “Re-design and evaluation of diclofenac-based carborane-substituted prodrugs and their anti-cancer potential” (Scientific Reports, 2024).

Tests used:
human recombinant COX-2 = molecular target: T1, human recombinant COX-2 (Homo sapiens, UniProt P35354); assay: COX Fluorescent Inhibitor Screening Assay, COX-2; format: biochemical
T1 construct: purchased Cayman Chemical Company, Ann Arbor, MI, USA
T1 sequence (P35354 18-604): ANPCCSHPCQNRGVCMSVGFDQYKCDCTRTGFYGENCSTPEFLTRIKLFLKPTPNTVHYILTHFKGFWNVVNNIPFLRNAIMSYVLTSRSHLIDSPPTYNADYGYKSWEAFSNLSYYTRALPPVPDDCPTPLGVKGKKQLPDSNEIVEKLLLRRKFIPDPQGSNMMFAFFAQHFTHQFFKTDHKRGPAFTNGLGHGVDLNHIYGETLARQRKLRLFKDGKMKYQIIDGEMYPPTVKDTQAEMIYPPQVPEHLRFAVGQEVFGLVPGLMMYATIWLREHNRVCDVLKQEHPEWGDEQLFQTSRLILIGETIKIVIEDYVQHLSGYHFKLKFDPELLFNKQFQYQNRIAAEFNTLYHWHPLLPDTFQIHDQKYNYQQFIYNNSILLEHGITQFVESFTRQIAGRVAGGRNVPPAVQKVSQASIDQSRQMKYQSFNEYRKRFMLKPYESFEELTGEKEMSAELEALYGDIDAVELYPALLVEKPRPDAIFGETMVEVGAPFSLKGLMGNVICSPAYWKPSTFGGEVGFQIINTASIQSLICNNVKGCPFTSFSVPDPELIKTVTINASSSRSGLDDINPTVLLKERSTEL
Protocol: The COX inhibition activity against ovine COX-1 and human recombinant COX-2 was determined using the COX Fluorescent Inhibitor Screening Assay Kit (Cayman Chemical Company, Ann Arbor, MI, USA) according to the manufacturer’s instructions as reported.

HT29 cells [1] = assay: MTT viability assay, HT29; format: cell-based, human; details: 72 h, mean±SD; read-out: IC50 [μM] (n = 3) HT29 MTT
Protocol: (§1) In a preliminary test, the stability of all compounds dissolved in the cell medium (c = 100 μM, T = [drawing 47] ) for 72 h was validated by HPLC (see Supporting Information). Cell lines were incubated with the respective compounds in a concentration range of 1.56–100 μM for 72 h, and cell viability was measured using 3-(4,5-dimethylthiazol-2-yl)-2,5-diphenyltetrazolium bromide (MTT) and crystal violet (CV) assays. […] As MTT tests gave inconsistent results, possibly due to interference of the compound with mitochondrial respiration, for the further evaluation only the CV results are considered[97],[98].
(§2) The biological study was performed on a murine colon adenocarcinoma cell line (MC38), two human colorectal carcinoma cell lines (HCT116 and HT29), and a human fetal lung fibroblast cell line (MRC-5). All cell lines are commercially available and were obtained from the American Type Culture Collection (ATCC). The human cell lines were kept in HEPES-buffered RPMI-1640 medium supplemented with 10 [drawing 141] heat-inactivated FCS, 2 mM L-glutamine, 0.01 [drawing 142] sodium pyruvate, penicillin (100 units mL^−1), and, streptomycin ( [drawing 143] mL^-1). The MC38 cell line was maintained in DMEM medium additionally supplemented with 1 [drawing 144] non-essential amino acids. Cells were grown at [drawing 145] in a humidified atmosphere with 5 [drawing 146] [drawing 147] . Peritoneal exudate cells (PECs) were isolated from healthy C57BL/6 mice (males, n = 3, 3 months old, weight 22–25 g) by performing an ice-cold PBS peritoneal lavage. Mice were sacrificed by cervical dislocation. Cells were cultivated for 4 h when nonadherent population was removed by washing in PBS, and additionally cultivated overnight in HEPES-buffered RPMI-1640 medium supplemented with 5 [drawing 148] heat-inactivated FCS before treatment with experimental drugs. Animal handling and protocol for isolation of PECs were performed according to European Union rules, and the ARRIVE guidelines 2.0.
(§3) For the viability tests, MC38, HCT116, and HT29 cells were seeded in 96-well plates at a density of 2 [drawing 149] 103, 5 [drawing 150] 103, and 6 [drawing 151] 10^3 cells/well, respectively. To determine whether the drug affected the viability of healthy, non-malignant cells, MRC-5 and PECs were seeded in 96-well plates at a density of 8 [drawing 152] 103 and 2 [drawing 153] 10^5 cells/well, respectively. For the flow cytometric analyses, MC38 cells were seeded in 6-well plates at 5 [drawing 154] 10^4 cells/well. For morphological assessment of nuclei and the detection of autophagy, MC38 cells were seeded in 2-well chamber slides at 1.5 [drawing 155] 10^4 cells/well.
(§4) After 72 h, cell viability was determined using MTT and CV tests. First, the supernatant from the wells was discarded and the cells were incubated with an MTT solution (0.5 mg mL^−1). After half an hour, the purple formazan crystals formed were dissolved in DMSO. For CV staining of the cells, the cells were fixed with 4 [drawing 157] PFA for 10 min and then stained with a 0.02 [drawing 158] CV solution for 15 min, all at room temperature (RT). The cells were then washed with tap water, air-dried and the dye was dissolved in 33 [drawing 159] acetic acid. For both viability tests, the absorbance of the developed colors was measured using an automated microplate reader at 570 nm with a reference wavelength of 670 nm. The results were expressed as a percentage of the control values of the untreated cells, which were arbitrarily set at 100 [drawing 160] . IC50 values, defined as 50 [drawing 161] inhibitory concentration, were calculated using a four-parameter logistic function and presented as mean±SD. All biological experiments were performed in triplicates. To evaluate the nature of the detected autophagy, a combined treatment with compound 3 and the autophagy inhibitors chloroquine (Chlq) and 3-methyladenine (3-MA) was carried out. […] After 72 h, cell viability was determined by CV assay.

HT29 cells [2] = assay: Crystal violet (CV) viability assay, HT29; format: cell-based, human; details: 72 h, mean±SD; read-out: IC50 [μM] (n = 3) HT29 CV
Protocol: as §1, §2, §3, §4

MC38 cells = assay: DHR 123 ROS/RNS production, flow cytometry; format: cell-based, murine; details: IC50 concentration, 72 h
Protocol: For all flow cytometric analyses, MC38 cells were seeded overnight and then treated with the IC50 concentration of compound 3 for 72 h. The cells were harvested, washed, and stained according to the manufacturer’s instructions for each method. To determine whether the compound induces apoptosis, cells were double stained with AnnV-FITC and PI (15 μg mL^–1) for 15 min at RT in the dark. To detect caspase activity, cells were stained with the FITC-conjugated caspase inhibitor ApoStat for 30 min at [drawing 162] . To detect cell proliferation, MC38 cells were stained with CFSE (1 μM) for 10 min at [drawing 163] prior to seeding and then treated as previously described. To detect intracellular production of Reactive oxygen/nitrogen Species (ROS/RNS), MC38 cells were prestained with DHR 123 (1 [drawing 164] M) for 20 min at [drawing 165] , then seeded and exposed to an IC50 concentration of compound 3. After 72 h incubation, all samples were washed, resuspended in PBS and fluorescence intensity was analyzed using a CytoFLEX [drawing 166] flow cytometer (Beckman Coulter, Pasadena, CA, USA), while the data obtained was evaluated using the [drawing 167] software program.

%Inh. @ 100 μM (n = 2) COX-2 (human recombinant COX-2; 100 μM): 105%
IC50 (human recombinant COX-2; absolute IC50, 0.1 to 100 μM in duplicate, 95% CI in brackets): 4.58 µM
COX inhibition, in words (human recombinant COX-2; in vitro COX assay, COX-1 and COX-2): moderately active COX-inhibitors
SI1/2 = IC50(COX-1)/IC50(COX-2) (human recombinant COX-2; selectivity index): 3.3
IC50 (HT29 cells [1]): 17 ± 1.6 µM
IC50 (HT29 cells [2]): 17.6 ± 0.3 µM
Substance: 1-[2-(7,8-dicarba-nido-undecaborate)]- [drawing 126] H-indolium-2-amine [compound 3]
production of ROS/RNS (DHR 123) (MC38 cells): strongly depleted
